In paper PMC9706563, “Development of Macrocyclic PRMT5–Adaptor Protein Interaction Inhibitors” (Journal of Medicinal Chemistry, 2022):
Square brackets hold non-standard residues; d marks the D form. Peptide text beside a SMILES is read from it. * marks the point of attachment. FITC = O=C1OC2(c3ccc(O)cc3Oc3cc(O)ccc32)c2ccc(NC(=S)*)cc21; Phe(2-F) = N[C@@H](Cc1ccccc1F)C(=O)O; NMeF = CN[C@@H](Cc1ccccc1)C(=O)O; hPhe = N[C@@H](CCc1ccccc1)C(=O)O; Cit = NC(=O)NCCC[C@H](N)C(=O)O; NMeD = CN[C@@H](CC(=O)O)C(=O)O; NMeV = CN[C@H](C(=O)O)C(C)C; NMeA = CN[C@@H](C)C(=O)O; Dab = NCC[C@H](N)C(=O)O; Alloc = C=CCOC(=O)*; Sar = CNCC(=O)O

The compounds below were run against T1, PRMT5-MEP50 (Homo sapiens, UniProt O14744) (assay: Direct binding fluorescence polarization (FP) assay of FITC-labeled peptides). Details: FITC-labeled peptide 1 nM, PRMT5-MEP50 titrated, read-out: KD.
T1 construct: The compounds were tested by means of FP with the full-length PRMT5-MEP50 complex; made in house
T1 sequence (O14744 whole entry): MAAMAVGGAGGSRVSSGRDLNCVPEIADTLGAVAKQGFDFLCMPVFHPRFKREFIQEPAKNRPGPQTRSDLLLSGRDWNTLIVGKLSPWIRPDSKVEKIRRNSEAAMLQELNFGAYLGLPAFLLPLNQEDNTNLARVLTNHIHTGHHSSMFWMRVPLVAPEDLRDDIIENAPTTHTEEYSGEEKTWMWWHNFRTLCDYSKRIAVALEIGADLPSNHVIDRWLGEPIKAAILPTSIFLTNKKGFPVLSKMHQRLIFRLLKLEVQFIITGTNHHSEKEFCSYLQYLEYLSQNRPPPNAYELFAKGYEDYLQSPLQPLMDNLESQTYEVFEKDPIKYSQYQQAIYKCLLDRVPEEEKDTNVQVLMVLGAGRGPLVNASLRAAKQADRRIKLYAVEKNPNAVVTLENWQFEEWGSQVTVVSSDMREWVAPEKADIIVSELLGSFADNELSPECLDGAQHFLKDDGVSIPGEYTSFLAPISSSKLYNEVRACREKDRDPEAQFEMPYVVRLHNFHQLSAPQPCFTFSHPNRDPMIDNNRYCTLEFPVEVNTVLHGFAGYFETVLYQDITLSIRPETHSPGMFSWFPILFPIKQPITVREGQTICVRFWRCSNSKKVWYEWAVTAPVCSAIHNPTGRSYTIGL
T1 sequence (Q9BQA1 whole entry partner): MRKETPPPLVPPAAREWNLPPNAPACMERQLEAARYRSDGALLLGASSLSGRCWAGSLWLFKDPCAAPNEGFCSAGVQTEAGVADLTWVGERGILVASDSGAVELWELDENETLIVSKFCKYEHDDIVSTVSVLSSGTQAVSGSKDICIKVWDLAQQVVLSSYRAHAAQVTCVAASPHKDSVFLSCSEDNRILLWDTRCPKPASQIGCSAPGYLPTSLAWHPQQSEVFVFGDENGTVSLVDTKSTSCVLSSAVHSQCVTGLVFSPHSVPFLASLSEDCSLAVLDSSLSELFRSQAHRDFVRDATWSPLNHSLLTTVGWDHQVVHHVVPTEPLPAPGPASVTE
Method: The assay was performed in a buffer of 50 mM 4-(2-hydroxyethyl)-1-piperazineethanesulfonic acid (HEPES), 250 mM NaCl, 1 mM tris(2-carboxyethyl)phosphine (TCEP), and 0.01% (v/v) Tween 20, pH 8.0, in black, 384-well plates with a total volume of 10 μL per well. […] The plates were incubated at room temperature for 1 to 2 h and analyzed on a plate reader using 485 nm excitation and 535 nm emission wavelength. The assay was performed in triplicate.

Kd | Compound
670 ± 187 nM | CC(=O)N[C@H](C(=O)N1CCC[C@H]1C(=O)NCC(=O)N[C@@H](CCC(N)=O)C(=O)N[C@@H](Cc1ccccc1)C(=O)N[C@@H](CC(=O)O)C(=O)N[C@@H](CC(=O)O)C(=O)N[C@@H](C)C(=O)N[C@@H](CC(=O)O)C(=O)N[C@@H](CCCCNC(=S)Nc1ccc2c(c1)C(=O)OC21c2ccc(O)cc2Oc2cc(O)ccc21)C(N)=O)C(C)C [Compound 29] (Ac-VPGQFDDADK(FITC)-NH2)
600 ± 100 nM | CC(=O)N[C@H](C(=O)N1CCC[C@H]1C(=O)NCC(=O)N[C@@H](CCC(N)=O)C(=O)N[C@@H](Cc1ccccc1)C(=O)N[C@@H](CC(=O)O)C(=O)N[C@@H](CC(=O)O)C(=O)N[C@@H](C)C(=O)N(C)[C@@H](CC(=O)O)C(=O)N[C@@H](CCCCNC(=S)Nc1ccc2c(c1)C(=O)OC21c2ccc(O)cc2Oc2cc(O)ccc21)C(N)=O)C(C)C [Compound 44] (Ac-VPGQFDDA[NMeD]K(FITC)-NH2)
89 ± 11 nM | CC(=O)N[C@H](C(=O)N1CCC[C@H]1C(=O)N[C@@H]1CCCCC[C@@H](C(=O)N[C@@H](CC(=O)O)C(=O)N[C@@H](C)C(=O)N[C@@H](CC(C(=O)O)C(=O)O)C(=O)N[C@@H](CCCCNC(=S)Nc2ccc3c(c2)C(=O)OC32c3ccc(O)cc3Oc3cc(O)ccc32)C(N)=O)NC(=O)[C@H](Cc2ccc([N+](=O)[O-])cc2)NC(=O)[C@H](CCC(N)=O)NC1=O)C(C)C [Compound 50]

Compound | Kd
CC(C)[C@H](NC(=O)COCCOCCNC(=S)Nc1ccc2c(c1)C(=O)OC21c2ccc(O)cc2Oc2cc(O)ccc21)C(=O)N1CCC[C@H]1C(=O)NCC(=O)N[C@@H](CCC(N)=O)C(=O)N[C@@H](Cc1ccccc1)C(=O)N[C@@H](CC(=O)O)C(=O)N[C@@H](CC(=O)O)C(=O)N[C@@H](C)C(=O)N[C@@H](CC(=O)O)C(N)=O [Compound 28] (HELM PEPTIDE1{[O=C1OC2(c3ccc(O)cc3Oc3cc(O)ccc32)c2ccc(NC(=S)[*:2])cc21].[O=C(COCCOCCN[*:1])[*:2]].V.P.G.Q.F.D.D.A.D.[am]}$$$$V2.0) | 905 ± 104 nM

Same assay, conditions: supplementary CSV, read-out: PRMT5-MEP50 Kd

Kd | Compound
531 ± 23 nM | CC(=O)N[C@H](C(=O)N1CCC[C@H]1C(=O)NCC(=O)N[C@@H](CCC(N)=O)C(=O)N[C@@H](Cc1ccccc1)C(=O)N[C@@H](CC(=O)O)C(=O)N[C@@H](CC(=O)O)C(=O)N[C@@H](C)C(=O)N[C@@H](CCC(=O)O)C(=O)N[C@@H](CCCCNC(=S)Nc1ccc2c(c1)C(=O)OC21c2ccc(O)cc2Oc2cc(O)ccc21)C(N)=O)C(C)C [Compound 33] (Ac-VPGQFDDAEK(FITC)-NH2)
587 ± 142 nM | CC(=O)N[C@H](C(=O)N1CCC[C@H]1C(=O)NCC(=O)N[C@@H](CCC(N)=O)C(=O)N[C@@H](Cc1ccccc1)C(=O)N[C@@H](CC(=O)O)C(=O)N[C@@H](CC(=O)O)C(=O)N[C@@H](C)C(=O)N(C)[C@@H](CC(=O)O)C(=O)N[C@@H](CCCCNC(=S)Nc1ccc2c(c1)C(=O)OC21c2ccc(O)cc2Oc2cc(O)ccc21)C(N)=O)C(C)C [Compound 44] (Ac-VPGQFDDA[NMeD]K(FITC)-NH2)
> 2000 nM | CC(=O)N[C@H](C(=O)N1CCC[C@H]1C(=O)NCC(=O)N[C@@H](CCC(N)=O)C(=O)N[C@@H](Cc1ccccc1)C(=O)N[C@@H](CC(=O)O)C(=O)N[C@@H](CC(=O)O)C(=O)N(C)[C@@H](C)C(=O)N[C@@H](CC(=O)O)C(=O)N[C@@H](CCCCNC(=S)Nc1ccc2c(c1)C(=O)OC21c2ccc(O)cc2Oc2cc(O)ccc21)C(N)=O)C(C)C [Compound 45, Ac-VPGQFDD-(N-Me)A-DK(Fitc)-NH2] (Ac-VPGQFDD[NMeA]DK(FITC)-NH2)
> 2000 nM | CC(=O)N[C@H](C(=O)N1CCC[C@H]1C(=O)NCC(=O)N[C@@H](CCC(N)=O)C(=O)N[C@@H](Cc1ccccc1)C(=O)N[C@@H](CC(=O)O)C(=O)N(C)[C@@H](CC(=O)O)C(=O)N[C@@H](C)C(=O)N[C@@H](CC(=O)O)C(=O)N[C@@H](CCCCNC(=S)Nc1ccc2c(c1)C(=O)OC21c2ccc(O)cc2Oc2cc(O)ccc21)C(N)=O)C(C)C [Compound 46, Ac-VPGQFD-(N-Me)D-ADK(Fitc)-NH2] (Ac-VPGQFD[NMeD]ADK(FITC)-NH2)
> 2000 nM | CC(=O)N[C@H](C(=O)N1CCC[C@H]1C(=O)NCC(=O)N[C@@H](CCC(N)=O)C(=O)N(C)[C@@H](Cc1ccccc1)C(=O)N[C@@H](CC(=O)O)C(=O)N[C@@H](CC(=O)O)C(=O)N[C@@H](C)C(=O)N[C@@H](CC(=O)O)C(=O)N[C@@H](CCCCNC(=S)Nc1ccc2c(c1)C(=O)OC21c2ccc(O)cc2Oc2cc(O)ccc21)C(N)=O)C(C)C [Compound 47, Ac-VPGQ-(N-Me)F-DDADK(Fitc)-NH2] (Ac-VPGQ[NMeF]DDADK(FITC)-NH2)
> 2000 nM | CC(=O)N[C@H](C(=O)N1CCC[C@H]1C(=O)N(C)CC(=O)N[C@@H](CCC(N)=O)C(=O)N[C@@H](Cc1ccccc1)C(=O)N[C@@H](CC(=O)O)C(=O)N[C@@H](CC(=O)O)C(=O)N[C@@H](C)C(=O)N[C@@H](CC(=O)O)C(=O)N[C@@H](CCCCNC(=S)Nc1ccc2c(c1)C(=O)OC21c2ccc(O)cc2Oc2cc(O)ccc21)C(N)=O)C(C)C [Compound 48, Ac-VP-(N-Me)G-QFDDADK(Fitc)-NH2] (Ac-VP[Sar]QFDDADK(FITC)-NH2)
> 2000 nM | CC(=O)N(C)[C@H](C(=O)N1CCC[C@H]1C(=O)NCC(=O)N[C@@H](CCC(N)=O)C(=O)N[C@@H](Cc1ccccc1)C(=O)N[C@@H](CC(=O)O)C(=O)N[C@@H](CC(=O)O)C(=O)N[C@@H](C)C(=O)N[C@@H](CC(=O)O)C(=O)N[C@@H](CCCCNC(=S)Nc1ccc2c(c1)C(=O)OC21c2ccc(O)cc2Oc2cc(O)ccc21)C(N)=O)C(C)C [Compound 49] (Ac-[NMeV]PGQFDDADK(FITC)-NH2)
> 1000 nM | CC(=O)N[C@@H](Cc1ccc(O)cc1)C(=O)N1CCC[C@H]1C(=O)NCC(=O)N[C@@H](CCC(N)=O)C(=O)N[C@@H](Cc1ccccc1)C(=O)N[C@@H](CC(=O)O)C(=O)N[C@@H](CC(=O)O)C(=O)N[C@@H](C)C(=O)N[C@@H](CC(=O)O)C(=O)N[C@@H](CCCCNC(=S)Nc1ccc2c(c1)C(=O)OC21c2ccc(O)cc2Oc2cc(O)ccc21)C(N)=O [Compound S2] (Ac-YPGQFDDADK(FITC)-NH2)
> 1000 nM | CC(=O)N[C@@H](Cc1ccccc1)C(=O)N1CCC[C@H]1C(=O)NCC(=O)N[C@@H](CCC(N)=O)C(=O)N[C@@H](Cc1ccccc1)C(=O)N[C@@H](CC(=O)O)C(=O)N[C@@H](CC(=O)O)C(=O)N[C@@H](C)C(=O)N[C@@H](CC(=O)O)C(=O)N[C@@H](CCCCNC(=S)Nc1ccc2c(c1)C(=O)OC21c2ccc(O)cc2Oc2cc(O)ccc21)C(N)=O [Compound S3] (Ac-FPGQFDDADK(FITC)-NH2)
> 1000 nM | CC(=O)N[C@@H](CCc1ccccc1)C(=O)N1CCC[C@H]1C(=O)NCC(=O)N[C@@H](CCC(N)=O)C(=O)N[C@@H](Cc1ccccc1)C(=O)N[C@@H](CC(=O)O)C(=O)N[C@@H](CC(=O)O)C(=O)N[C@@H](C)C(=O)N[C@@H](CC(=O)O)C(=O)N[C@@H](CCCCNC(=S)Nc1ccc2c(c1)C(=O)OC21c2ccc(O)cc2Oc2cc(O)ccc21)C(N)=O [Compound S4] (Ac-[hPhe]PGQFDDADK(FITC)-NH2)
> 1000 nM | CC(=O)N[C@@H](Cc1c[nH]c2ccccc12)C(=O)N1CCC[C@H]1C(=O)NCC(=O)N[C@@H](CCC(N)=O)C(=O)N[C@@H](Cc1ccccc1)C(=O)N[C@@H](CC(=O)O)C(=O)N[C@@H](CC(=O)O)C(=O)N[C@@H](C)C(=O)N[C@@H](CC(=O)O)C(=O)N[C@@H](CCCCNC(=S)Nc1ccc2c(c1)C(=O)OC21c2ccc(O)cc2Oc2cc(O)ccc21)C(N)=O [Compound S5] (Ac-WPGQFDDADK(FITC)-NH2)
> 1000 nM | CC(=O)N[C@@H](CC(=O)O)C(=O)N1CCC[C@H]1C(=O)NCC(=O)N[C@@H](CCC(N)=O)C(=O)N[C@@H](Cc1ccccc1)C(=O)N[C@@H](CC(=O)O)C(=O)N[C@@H](CC(=O)O)C(=O)N[C@@H](C)C(=O)N[C@@H](CC(=O)O)C(=O)N[C@@H](CCCCNC(=S)Nc1ccc2c(c1)C(=O)OC21c2ccc(O)cc2Oc2cc(O)ccc21)C(N)=O [Compound S6] (Ac-DPGQFDDADK(FITC)-NH2)
695 ± 78 nM | CC(=O)N[C@@H](CCC(=O)O)C(=O)N1CCC[C@H]1C(=O)NCC(=O)N[C@@H](CCC(N)=O)C(=O)N[C@@H](Cc1ccccc1)C(=O)N[C@@H](CC(=O)O)C(=O)N[C@@H](CC(=O)O)C(=O)N[C@@H](C)C(=O)N[C@@H](CC(=O)O)C(=O)N[C@@H](CCCCNC(=S)Nc1ccc2c(c1)C(=O)OC21c2ccc(O)cc2Oc2cc(O)ccc21)C(N)=O [Compound S7] (Ac-EPGQFDDADK(FITC)-NH2)
> 1000 nM | CC(=O)N[C@H](C(=O)N1CCC[C@H]1C(=O)NCC(=O)N[C@@H](CC(N)=O)C(=O)N[C@@H](Cc1ccccc1)C(=O)N[C@@H](CC(=O)O)C(=O)N[C@@H](CC(=O)O)C(=O)N[C@@H](C)C(=O)N[C@@H](CC(=O)O)C(=O)N[C@@H](CCCCNC(=S)Nc1ccc2c(c1)C(=O)OC21c2ccc(O)cc2Oc2cc(O)ccc21)C(N)=O)C(C)C [Compound S8] (Ac-VPGNFDDADK(FITC)-NH2)
> 1000 nM | CC(=O)N[C@H](C(=O)N1CCC[C@H]1C(=O)NCC(=O)N[C@@H](CCN)C(=O)N[C@@H](Cc1ccccc1)C(=O)N[C@@H](CC(=O)O)C(=O)N[C@@H](CC(=O)O)C(=O)N[C@@H](C)C(=O)N[C@@H](CC(=O)O)C(=O)N[C@@H](CCCCNC(=S)Nc1ccc2c(c1)C(=O)OC21c2ccc(O)cc2Oc2cc(O)ccc21)C(N)=O)C(C)C [Compound S9] (Ac-VPG[Dab]FDDADK(FITC)-NH2)
> 1000 nM | C=CCOC(=O)NCC[C@H](NC(=O)CNC(=O)[C@@H]1CCCN1C(=O)[C@@H](NC(C)=O)C(C)C)C(=O)N[C@@H](Cc1ccccc1)C(=O)N[C@@H](CC(=O)O)C(=O)N[C@@H](CC(=O)O)C(=O)N[C@@H](C)C(=O)N[C@@H](CC(=O)O)C(=O)N[C@@H](CCCCNC(=S)Nc1ccc2c(c1)C(=O)OC21c2ccc(O)cc2Oc2cc(O)ccc21)C(N)=O [Compound S10] (Ac-VPG[Dab](Alloc)FDDADK(FITC)-NH2)
> 1000 nM | CC(=O)N[C@H](C(=O)N1CCC[C@H]1C(=O)NCC(=O)N[C@@H](CCCNC(N)=O)C(=O)N[C@@H](Cc1ccccc1)C(=O)N[C@@H](CC(=O)O)C(=O)N[C@@H](CC(=O)O)C(=O)N[C@@H](C)C(=O)N[C@@H](CC(=O)O)C(=O)N[C@@H](CCCCNC(=S)Nc1ccc2c(c1)C(=O)OC21c2ccc(O)cc2Oc2cc(O)ccc21)C(N)=O)C(C)C [Compound S11] (Ac-VPG[Cit]FDDADK(FITC)-NH2)
> 1000 nM | CC(=O)N[C@H](C(=O)N1CCC[C@H]1C(=O)NCC(=O)N[C@@H](CCC(N)=O)C(=O)N[C@@H](Cc1ccccc1F)C(=O)N[C@@H](CC(=O)O)C(=O)N[C@@H](CC(=O)O)C(=O)N[C@@H](C)C(=O)N[C@@H](CC(=O)O)C(=O)N[C@@H](CCCCNC(=S)Nc1ccc2c(c1)C(=O)OC21c2ccc(O)cc2Oc2cc(O)ccc21)C(N)=O)C(C)C [Compound S12] (Ac-VPGQ[Phe(2-F)]DDADK(FITC)-NH2)
